Here are results for 19 molecules from US9630914B2, “Multitarget FAAH and COX inhibitors and therapeutical uses thereof” (FONDAZIONE ISTITUTO ITALIANO DI TECNOLOGIA, priority 2012, dated 2017).

Where two headings read alike, the source gives them in different places. A value given as a limit tells only on which side of the number the result lay.

Common to all, as to format: biochemical
Test [1] deals with ovine COX-1 (Ovis aries (Sheep), UniProt P05979). The test is described as follows: In vitro COX assay (COX Inhibitor Screening Assay Kit), COX-1. The settings on record: 5 μM arachidonic acid. How it is done: (§1) COX activity was measured using a commercial kit (COX Inhibitor Screening Assay Kit—Cayman Chemical N. 560131) which includes both ovine COX-1 and human recombinant COX-2 enzymes. Inhibitors were pre-incubated with either ovine COX-1 or human COX-2 in order to screen isozyme-specific inhibition. Differently than described in the kit protocol, the reaction was carried out in the presence of 5 μM arachidonic acid while for the blank sample (no activity) the two enzymes were inactivated for 40 minutes at 100° C. It was then measured the amount of PGF2α produced by reduction with SnCl2 of COX-derived PGH2, via enzyme immunoassay (EIA) using a PG-specific antibody and competing with a PG-acetylcholinesterase conjugate.
Sequence of ovine COX-1 (P05979 25-600): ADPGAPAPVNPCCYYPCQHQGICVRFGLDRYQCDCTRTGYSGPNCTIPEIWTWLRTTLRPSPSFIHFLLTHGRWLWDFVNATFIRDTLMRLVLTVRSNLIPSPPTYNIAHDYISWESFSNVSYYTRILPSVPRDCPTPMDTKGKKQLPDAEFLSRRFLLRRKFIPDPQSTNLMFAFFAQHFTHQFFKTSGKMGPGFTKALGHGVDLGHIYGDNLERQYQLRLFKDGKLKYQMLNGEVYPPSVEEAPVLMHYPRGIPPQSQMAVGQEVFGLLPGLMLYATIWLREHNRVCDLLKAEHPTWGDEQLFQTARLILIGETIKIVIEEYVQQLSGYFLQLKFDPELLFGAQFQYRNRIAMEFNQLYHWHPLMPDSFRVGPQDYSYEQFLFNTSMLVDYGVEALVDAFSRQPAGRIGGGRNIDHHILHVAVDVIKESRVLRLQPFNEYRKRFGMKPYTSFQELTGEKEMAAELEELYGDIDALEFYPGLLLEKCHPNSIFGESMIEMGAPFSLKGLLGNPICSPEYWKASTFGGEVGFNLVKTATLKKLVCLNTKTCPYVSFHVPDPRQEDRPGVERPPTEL
(§2) Absorbance was measured at 412 nm with a Tecan Infinite M200 plate reader and data were processed according to manufacturer's instructions.
(§3) The median inhibitory concentrations (IC50) were determined by non-linear regression analysis of the Log [concentration]/response curves generated with mean replicate values using a four parameter Hill equation curve fitting with GraphPad Prism 5 (GraphPad Software Inc., CA-USA).

The target of test [2] is Rat FAAH (Rattus norvegicus (Rat), UniProt P97612). Kind of test: In vitro rat FAAH radiometric assay. The note with it: rat brain homogenate; means of ≧3 experiments in duplicate. The procedure: In Vitro Rat FAAH Radiometric Assay
Sequence of Rat FAAH (P97612 whole entry): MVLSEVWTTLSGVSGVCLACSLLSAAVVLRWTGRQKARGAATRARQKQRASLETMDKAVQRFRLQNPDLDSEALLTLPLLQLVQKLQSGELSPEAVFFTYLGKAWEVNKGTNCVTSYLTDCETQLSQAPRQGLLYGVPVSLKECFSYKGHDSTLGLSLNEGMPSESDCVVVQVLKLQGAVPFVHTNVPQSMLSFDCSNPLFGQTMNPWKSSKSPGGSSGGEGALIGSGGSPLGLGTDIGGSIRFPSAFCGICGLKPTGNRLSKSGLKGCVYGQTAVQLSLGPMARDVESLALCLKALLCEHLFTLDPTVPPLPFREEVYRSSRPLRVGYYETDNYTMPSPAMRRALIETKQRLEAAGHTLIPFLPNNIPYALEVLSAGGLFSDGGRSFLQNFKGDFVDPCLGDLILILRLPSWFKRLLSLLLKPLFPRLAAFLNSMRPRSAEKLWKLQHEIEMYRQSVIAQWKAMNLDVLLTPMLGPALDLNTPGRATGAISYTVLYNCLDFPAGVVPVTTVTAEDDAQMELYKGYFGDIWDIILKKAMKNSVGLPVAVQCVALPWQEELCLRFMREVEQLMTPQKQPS
Rat FAAH was prepared from male Sprague Dawley rat brains, homogenized in a potter in 20 mM of Tris HCl pH 7.4, 0.32 M sucrose.
After 10 minutes of pre-incubation with test compounds, the reaction was started by adding of 50 μL of substrate and incubating for 30 min at 37° C. The substrate was prepared in assay buffer in order to achieve the final concentration of 1 μM arachidonoyl ethanolamide (Cayman Chemical N. 90050) and 0.6 nM anandamide [ethanolamine-1-^3H](American Radiolabeled Chemicals Inc., ART. 0626, conc. 1 mCi/mL, S.A. 60 Ci/mmol). The reaction was stopped by adding cold 1:1 CHCl3/MeOH. After 10 minutes of centrifugation (845×g at 4° C.) 600 μL of aqueous phase were transferred into scintillation vials previously filled with 3 mL of scintillation fluid (Ultima Gold™, Perkin Elmer Inc., Cat. 6013329). Radioactivity was measured by liquid scintillation counting (MicroBeta2 LumiJET Perkin Elmer Inc.).
as §3

Test [3] has as its target human FAAH-1 (Homo sapiens (Human), UniProt O00519). Kind of test: In vitro human FAAH fluorescent assay. The note with it: human FAAH-1 membrane preparation from HEK-293; means of ≧3 experiments. The procedure: In Vitro Human FAAH Fluorescent Assay
Human recombinant FAAH was obtained from a HEK-293 FAAH-1 overexpressing stable cell line. Cells were grown in DMEM medium containing 10% FBS, 1% pen/strep, 1% glutamine and 500 μg/mL G418. To obtain membrane preparation cells were scraped off with cold phosphate-buffered saline (PBS) and collected by centrifugation (500×g, 10 minutes, 4° C.); the cell pellet was re-suspended in 20 mM Tris-HCl pH 7.4, 0.32 M sucrose, disrupted by sonication (10 pulses, 5 times) and centrifuged (800×g, 15 minutes, 4° C.); the collected supernatant was centrifuged at 105,000×g for 1 h at 4° C. and the pellet was re-suspended in PBS.
The background (no activity) samples were prepared using 180 μL of assay buffer without human FAAH-1 and 10 μL of DMSO. The reaction was then started by the addition of 10 μL of substrate (AMC arachidonyl amide, N. 10005098, Cayman Chemical) dissolved in ethanol and used at a final concentration of 2 μM. The reaction was carried out for 30 minutes at 37° C. and fluorescence was measured with a Tecan Infinite M200 nanoquant plate reader (excitation wavelength 350 nm/emission wavelength 460 nm).
as §3

For test [4], the target named is human recombinant COX-2 (Homo sapiens (Human), UniProt P35354). Kind of test: In vitro COX assay (COX Inhibitor Screening Assay Kit), COX-2. The procedure:
as §1, §2, §3

Where [5] appears, read: 5 μM arachidonic acid, read-out: human COX-2 IC50.

Sequence of human FAAH-1 (O00519 whole entry): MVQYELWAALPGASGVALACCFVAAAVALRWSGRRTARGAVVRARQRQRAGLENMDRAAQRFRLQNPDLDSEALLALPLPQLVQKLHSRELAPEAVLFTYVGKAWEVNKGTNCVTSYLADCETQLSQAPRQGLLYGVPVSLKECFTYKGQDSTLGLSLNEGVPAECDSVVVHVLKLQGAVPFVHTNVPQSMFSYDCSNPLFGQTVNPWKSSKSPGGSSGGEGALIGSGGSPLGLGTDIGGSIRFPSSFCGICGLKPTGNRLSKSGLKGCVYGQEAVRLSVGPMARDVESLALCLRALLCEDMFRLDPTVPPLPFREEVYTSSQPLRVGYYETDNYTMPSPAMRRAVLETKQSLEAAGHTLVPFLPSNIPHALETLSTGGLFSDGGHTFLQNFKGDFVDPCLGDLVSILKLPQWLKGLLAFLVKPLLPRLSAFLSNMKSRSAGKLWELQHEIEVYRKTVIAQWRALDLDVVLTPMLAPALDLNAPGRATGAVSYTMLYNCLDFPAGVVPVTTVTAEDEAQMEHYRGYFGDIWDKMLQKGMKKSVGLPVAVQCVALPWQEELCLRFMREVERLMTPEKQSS
Sequence of human recombinant COX-2 (P35354 18-604): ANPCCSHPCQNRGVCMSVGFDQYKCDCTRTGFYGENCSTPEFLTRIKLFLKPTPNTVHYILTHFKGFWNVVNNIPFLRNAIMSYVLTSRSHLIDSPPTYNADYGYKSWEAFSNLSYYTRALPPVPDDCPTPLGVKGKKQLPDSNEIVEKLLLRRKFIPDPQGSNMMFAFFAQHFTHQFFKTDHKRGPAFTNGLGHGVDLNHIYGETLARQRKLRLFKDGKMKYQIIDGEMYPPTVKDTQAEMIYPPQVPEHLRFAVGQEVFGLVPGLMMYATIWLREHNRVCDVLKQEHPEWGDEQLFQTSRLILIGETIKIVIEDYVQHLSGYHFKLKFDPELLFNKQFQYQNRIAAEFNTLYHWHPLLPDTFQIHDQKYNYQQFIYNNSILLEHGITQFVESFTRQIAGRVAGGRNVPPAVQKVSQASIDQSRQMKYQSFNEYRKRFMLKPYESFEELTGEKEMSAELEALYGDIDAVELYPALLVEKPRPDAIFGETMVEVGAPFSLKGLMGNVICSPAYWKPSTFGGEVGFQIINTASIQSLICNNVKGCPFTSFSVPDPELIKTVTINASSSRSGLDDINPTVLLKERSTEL

In general, IC50 refers to the concentration that inhibits the measured activity by half. The molecule `CCCCCCNC(=O)Oc1cccc(-c2ccc(C(C)C(=O)O)cc2F)c1` (single isomer, unassigned; (+)) [Example 20, (+)-2-[3-fluoro-4-[3-(hexylcarbamoyloxy)phenyl]phenyl]propanoic acid] gave a half-maximal inhibitory concentration (IC50) in test [1] of 0.01 nM.
On the same count and under the same terms, as for `CCCCCCNC(=O)Oc1cccc(-c2ccc(C(C)C(=O)O)cc2F)c1` (single isomer, unassigned; (-)) [Example 19, (−)-2-[3-fluoro-4-[3-(hexylcarbamoyloxy)phenyl]phenyl]propanoic acid], the figure is 13000 nM.
Turning to `CC(C(=O)O)c1ccc(-c2cccc(OC(=O)NC3CCCCC3)c2)c(F)c1` (stereo not shown) [Example 1, 2-[4-[3-(cyclohexylcarbamoyloxy)phenyl]-3-fluoro-phenyl]propanoic acid], the IC50 in test [2] is 8200 nM; in test [3], 1800 nM; in test [1] it was 7900 nM; in test [4] it was > 30000 nM.
The corresponding values for `CC(C(=O)O)c1ccc(-c2cccc(OC(=O)NC3CCCC3)c2)c(F)c1` (stereo not shown) [Example 2, 2-[4-[3-(cyclopentylcarbamoyloxy)phenyl]-3-fluoro-phenyl]propanoic acid] are 4800 nM, 1800 nM, 4400 nM and > 30000 nM.
The corresponding values for `CC(C)CNC(=O)Oc1cccc(-c2ccc(C(C)C(=O)O)cc2F)c1` (stereo not shown) [Example 3, 2-[3-fluoro-4-[3-(isobutylcarbamoyloxy)phenyl]phenyl]propanoic acid] are 5600 nM, 1600 nM, 8200 nM and > 30000 nM.
Consider `CC(C(=O)O)c1ccc(-c2cccc(OC(=O)NCC3CCCCC3)c2)c(F)c1` (stereo not shown) [Example 4, 2-[4-[3-(cyclohexylmethylcarbamoyloxy)phenyl]-3-fluoro-phenyl]propanoic acid], for which the IC50 in test [2] is 360 nM; in test [3] it was 280 nM; in test [1], 600 nM; in test [4] it was > 30000 nM.
Consider `CC(C(=O)O)c1ccc(-c2cccc(OC(=O)NCCC3CCCCC3)c2)c(F)c1` (stereo not shown) [Example 5, 2-[4-[3-(2-cyclohexylethylcarbamoyloxyl)phenyl]-3-fluoro-phenyl]propanoic acid], for which the IC50 came out at 18 nM in test [2], 9 nM in test [3], 150 nM in test [1] and 11000 nM in test [4] (setting [5]).
Consider `CC(C(=O)O)c1ccc(-c2cccc(OC(=O)NCc3ccccc3)c2)c(F)c1` (stereo not shown) [Example 6, 2-[4-[3-(benzylcarbamoyloxy)phenyl]-3-fluoro-phenyl]propanoicacid], for which the IC50 in test [2] is 4200 nM; in test [3], 7200 nM; in test [1], 1300 nM; in test [4] it was > 30000 nM.
On to `CC(C(=O)O)c1ccc(-c2cccc(OC(=O)NCCc3ccccc3)c2)c(F)c1` (stereo not shown) [Example 7, 2-[3-fluoro-4-[3-(phenethylcarbamoyloxy)phenyl]phenyl]propanoic acid], for which the IC50 is 170 nM in test [2], 70 nM in test [3], 6300 nM in test [1] and > 30000 nM in test [4].
Regarding `CC(C(=O)O)c1ccc(-c2cccc(OC(=O)NCCCc3ccccc3)c2)c(F)c1` (stereo not shown) [Example 8, 2-[3-fluoro-4-[3-(3-phenylpropylcarbamoyloxyl)phenyl]phenyl]propanoic acid], the IC50 amounted to 90 nM in test [2], 22 nM in test [3], 580 nM in test [1] and 6200 nM in test [4] (setting [5]).
Turning to `CC(C(=O)O)c1ccc(-c2cccc(OC(=O)NCCCCc3ccccc3)c2)c(F)c1` (stereo not shown) [Example 9, 2-[3-fluoro-4-[3-(4-phenylbutylcarbamoyloxyl)phenyl]phenyl]propanoic acid], the IC50 in test [2] is 27 nM; in test [3] it was 13 nM; in test [1], 3700 nM; in test [4], > 30000 nM.
Turning to `CCCCNC(=O)Oc1cccc(-c2ccc(C(C)C(=O)O)cc2F)c1` (stereo not shown) [Example 10, 2-[4-[3-(butylcarbamoyloxy)phenyl]-3-fluoro-phenyl]propanoic acid], the IC50 in test [2] was 7000 nM; in test [3], 1500 nM; in test [1] it was 260 nM; in test [4] it was > 30000 nM.
Regarding `CCCCCNC(=O)Oc1cccc(-c2ccc(C(C)C(=O)O)cc2F)c1` (stereo not shown) [Example 11, 2-[3-fluoro-4-[3-(pentylcarbamoyloxy)phenyl]phenyl]propanoic acid], the IC50 turned out to be 570 nM in test [2], 92 nM in test [3], 20 nM in test [1] and 160 nM in test [4] (setting [5]).
Taken in the same sequence, the figures for `CCCCCCCNC(=O)Oc1cccc(-c2ccc(C(C)C(=O)O)cc2F)c1` (stereo not shown) [Example 13, 2-[3-fluoro-4-[3-(heptylcarbamoyloxy)phenyl]phenyl]propanoic acid] were 11 nM, 6 nM, 370 nM and 320 nM.
The corresponding values for `CCCCCCCCNC(=O)Oc1cccc(-c2ccc(C(C)C(=O)O)cc2F)c1` (stereo not shown) [Example 14, 2-[3-fluoro-4-[3-(octylcarbamoyloxy)phenyl]phenyl]propanoic acid] are 2.6 nM, 4 nM, 990 nM and 29000 nM.
Take `CCCCCCNC(=O)Oc1cccc(-c2ccc(C(C)CO)cc2F)c1` (stereo not shown) [Example 15, [3-[2-fluoro-4-(2-hydroxy-1-methyl-ethyl)phenyl]phenyl]N-hexylcarbamate]: the IC50 in test [2] is 3.3 nM; in test [3] it was 9.1 nM; in test [1] it was 1100 nM; in test [4], > 30000 nM.
Take `CCCCCCNC(=O)Oc1cccc(-c2ccc(CC(=O)O)cc2F)c1` [Example 16, 2-[3-fluoro-4-[3-(hexylcarbamoyloxy)phenyl]phenyl]acetic acid]: the IC50 in test [2] was determined as 63 nM; in test [3] it was 16 nM; in test [1] it was 2100 nM; in test [4] (setting [5]), 240 nM.
As for `CCCCCCNC(=O)Oc1ccccc1-c1ccc(C(C)C(=O)O)cc1F` (stereo not shown) [Example 17, 2-[3-fluoro-4-[2-(hexylcarbamoyloxy)phenyl]phenyl]propanoic acid], the 50% inhibitory concentration (IC50) was 2200 nM in test [2], 740 nM in test [3], 720 nM in test [1] and > 30000 nM in test [4].
In the case of `CCCCCCOC(=O)Nc1cccc(-c2ccc(C(C)C(=O)O)cc2F)c1` (stereo not shown) [Example 18, 2-[3-fluoro-4-[3-(hexoxycarbonylamino)phenyl]phenyl]propanoic acid], the IC50 is 15000 nM in test [2], 21000 nM in test [3], 30 nM in test [1] and 170 nM in test [4] (setting [5]).
